Structures are written as SMILES. Values joined by “and” are separate entries in the source; they are usually repeats but may differ in a detail not shown here. Equal values may be shown once.

Here are results for one compound from publication PMC8333425, “Discovery of a dual Ras and ARF6 inhibitor from a GPCR endocytosis screen” (Nature Communications, 2021).

The test system of this experiment is ERK1/2 activation by β2AR. Briefly: Western blot of β2AR-mediated ERK1/2 phosphorylation. In kind it is cell-based, human. Particulars: for p-ERK1/2 over ERK1/2, normalized to basal (0 min), b2AR: Comp 21 50 μM, individual experiments. On the procedure:
HEK293SL cells (10^5 cells per well) were seeded in a poly-L-lysine-coated six-well plate and transiently transfected with 3 μg Flag-AT1R, HA-B2R or HA-β2AR and/or 500 ng Flag-MEK1-WT, Flag-MEK1-DD, Flag-BRAF-WT, Flag-BRAF-V600E, Flag-K-Ras-WT, Flag-K-Ras-G12V, HA-ARF6-WT, or HA-ARF6-T27N. Gαq/11 KO and βarr1/2 KO cells were seeded onto 100 mm dishes at a density of 10^6 cells per dish. Next day, cells were transfected with 3 μg AT1R alone or along with 500 ng of β-arrestin2 using PEI. After 18 h of transfection, cells were detached and re-seeded onto poly-L-lysine coated 12-well plates (~1.5–2 × 10^5cells/well) for subsequent experiments. Forty-eight hours post transfection, in a 37 °C water bath, cells were serum-starved for 30 min, pretreated with DMSO (0.1%) or compound 21/Rasarfin (50 µM or at indicated concentrations) for 30 min, then stimulated or not with the indicated ligand [AngII (1 µM), BK (1 µM), Iso (10 µM) or EGF (100 ng/ml)] at indicated times. Cells were put on ice, washed with PBS and solubilized in 2x laemmli buffer (250 mM Tris–HCl pH 6.8, 2% SDS (w/v), 10% glycerol (v/v), 0.01% bromophenol blue (w/v) and 5% β-mercaptoethanol (v/v)) by heating at 65 °C for 15 min. Lysates were resolved on 10 or 14% SDS-PAGE, transferred to nitrocellulose membranes and immunoblotted for p-ERK1/2, ERK1/2, p-Akt, Akt, HA, Myc, β-actin or FLAG. ImageLab 5.2 software was used to quantify the digital blots as fold of the phosphorylated protein over total protein, which were then normalized as indicated in the figure legends. Uncropped immunoblots are provided in the Source Data file.

For the compound `CC(C)C(=O)N1CCN(c2ccc(NC(=O)c3cc4ccccc4o3)cc2Cl)CC1` [Compound 21], the “MAPK response promoted by β2AR” value (50 μM) is “blocked MAPK responses”. The “p-ERK1/2 over ERK1/2, normalized to basal (0 min), b2AR” value is 1 (time 0 min); 1.344 and 1.8469 and 1.974 and 1.462 (time 2 min); 1.8675 and 1.745 and 1.249 and 1.487 (time 5 min).
